Here are results for eight molecules from PubChem BioAssay (NCI).

Among the test systems are 786-0 renal; ACHN renal; IGROV1 ovarian; MOLT-4 leukemia; NCI-H23 lung; NCI/ADR-RES ovarian; SF-268 CNS; TK-10 renal; U251 CNS; SNB-75 CNS.
Holding throughout (test): DTP human tumour cell line panel, 48 h

SMILES strings stand for the structures. “And” between values parts separate entries of the source, which are not always exact repeats. Equal entries are not always repeated.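 How tested: cells in 96-well plates exposed to compound for 48 hours at five concentrations. Abbreviation: GI50, concentration required for 50% inhibition of growth. TGI denotes the concentration required for complete inhibition of growth.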

As usually defined, the GI50 is the concentration giving 50% growth inhibition. The term TGI denotes the concentration at which net growth stops. Regarding `CC(=Nc1ccccc1)C1=C(O)C(Cc2cccc(F)c2)NC1=O` (configuration not stated), the GI50 is 0.0857 µM in the experiment on 786-0 renal; 0.0694 µM in the experiment with ACHN renal; 0.0854 µM in the experiment with IGROV1 ovarian; 0.158 µM with MOLT-4 leukemia; 0.101 µM in the experiment on NCI-H23 lung; 0.0348 µM in the experiment on NCI/ADR-RES ovarian. In addition, the GI50 with SF-268 CNS was 0.071 µM; with TK-10 renal, 6.15 µM; in the experiment with U251 CNS it was 0.0702 µM. Moreover, the TGI with 786-0 renal is greater than 100 µM; with ACHN renal it was greater than 100 µM; with IGROV1 ovarian, greater than 100 µM; in the experiment on MOLT-4 leukemia it was greater than 100 µM; in the experiment on NCI-H23 lung it was greater than 100 µM; in the experiment with NCI/ADR-RES ovarian, 0.186 µM. Further, the TGI with SF-268 CNS, in the experiment with TK-10 renal and with U251 CNS was greater than 100 µM each time.

For the molecule `COC12C=C/C(=C(/C(=O)OCCSc3ccnn3C)C(=O)CCCCCCCCC3(OC)C=C/C(=C(/C(=O)OCCSc4ccnn4C)C(=O)CCCCCCCC1)O3)O2`, the GI50 in the experiment with 786-0 renal was 1.07 µM; with ACHN renal, 1.07 µM; with IGROV1 ovarian it was 1.46 µM; with NCI-H23 lung, 0.854 µM; with NCI/ADR-RES ovarian, 1.64 µM; with SF-268 CNS it was 1.15 µM. The GI50 was 0.999 µM with SNB-75 CNS, 2.35 µM in the experiment with TK-10 renal and 0.979 µM with U251 CNS. Also, the TGI in the experiment on 786-0 renal is 4.12 µM; with ACHN renal it was greater than 32.5 µM; in the experiment with IGROV1 ovarian it was greater than 32.5 µM; in the experiment with NCI-H23 lung, 2.37 µM; in the experiment on NCI/ADR-RES ovarian, greater than 32.5 µM; with SF-268 CNS, greater than 32.5 µM. The TGI in the experiment with SNB-75 CNS was 4.9 µM; in the experiment on TK-10 renal, greater than 32.5 µM; in the experiment on U251 CNS, 3.32 µM.

Turning to `COc1cc2c3c(n(CCCCNC(=O)OC(C)(C)C)c(=O)c2cc1OC)-c1cc2c(cc1C3=O)OCO2`, the GI50 was 25 µM with 786-0 renal; 20.1 µM in the experiment on ACHN renal; greater than 100 µM in the experiment on IGROV1 ovarian; greater than 100 µM with NCI-H23 lung; greater than 100 µM in the experiment with NCI/ADR-RES ovarian; 15.3 µM in the experiment on SF-268 CNS. For the same molecule, the figures for the GI50 in the experiment with SNB-75 CNS, in the experiment on TK-10 renal and in the experiment with U251 CNS were 33.2 µM, greater than 100 µM and greater than 100 µM, respectively. Besides, the TGI in the experiment on 786-0 renal, in the experiment on ACHN renal, with IGROV1 ovarian, in the experiment on NCI-H23 lung, with NCI/ADR-RES ovarian and in the experiment with SF-268 CNS was greater than 100 µM each time. For the same molecule, the TGI with SNB-75 CNS, in the experiment with TK-10 renal and in the experiment with U251 CNS was greater than 100 µM in each case.

Regarding `O=C(O)/C=C/c1ccc[c]([Sb](=[O])([OH])[OH])c1`, the GI50 in the experiment with 786-0 renal, with ACHN renal, in the experiment on IGROV1 ovarian, in the experiment on MOLT-4 leukemia, in the experiment on NCI-H23 lung and with NCI/ADR-RES ovarian was greater than 100 µM throughout. The GI50 in the experiment with SF-268 CNS, in the experiment on TK-10 renal and in the experiment with U251 CNS was greater than 100 µM each time. Also, the TGI in the experiment with 786-0 renal, with ACHN renal, with IGROV1 ovarian, in the experiment on MOLT-4 leukemia, in the experiment on NCI-H23 lung and in the experiment with NCI/ADR-RES ovarian was greater than 100 µM throughout. The TGI in the experiment with SF-268 CNS, with TK-10 renal and in the experiment on U251 CNS was greater than 100 µM throughout.

In the case of `Cc1c(NC(=O)CCl)c(=O)oc2c(C)c3occc(=O)c3cc12`, the TGI in the experiment with 786-0 renal was determined as 32.4 µM; with ACHN renal it was 80.5 µM; in the experiment on IGROV1 ovarian it was 31.2 µM; in the experiment on MOLT-4 leukemia, 17.9 µM; with NCI/ADR-RES ovarian it was 60.8 µM; in the experiment on SF-268 CNS it was 25.9 µM. The TGI with SNB-75 CNS amounted to 8.47 µM; with TK-10 renal, 42.6 µM; in the experiment on U251 CNS it was 27.5 µM.

As for `CC(=O)O[C@@]12CO[C@@H]1C[C@H](O)[C@@]1(C)C(=O)[C@H](O)C3=C(C)[C@@H](OC(=O)[C@H](O)[C@@H](NC(=O)OC(C)(C)C)c4ccccc4)C[C@@](O)([C@@H](OC(=O)c4ccccc4)C12)C3(C)C` (some centres not stated), the GI50 was 0.00549 µM with 786-0 renal; 0.0357 µM in the experiment on IGROV1 ovarian; 0.0194 µM with MOLT-4 leukemia; less than 0.005 µM with NCI-H23 lung; 0.35 µM and 2.05 µM in the experiment on NCI/ADR-RES ovarian; less than 0.005 µM in the experiment on U251 CNS. Besides, the TGI in the experiment on 786-0 renal was 50 µM; in the experiment on ACHN renal, 50 µM and > 100 µM; with IGROV1 ovarian it was greater than 100 µM; in the experiment on MOLT-4 leukemia, 52.6 µM; in the experiment on NCI-H23 lung, 50 µM; with NCI/ADR-RES ovarian it was 2.77 µM and 15.4 µM. Moreover, the TGI was 81.5 µM in the experiment on SF-268 CNS; 12.1 µM and > 100 µM with TK-10 renal; 50 µM and > 100 µM in the experiment with U251 CNS.

As for `COc1cc(OC)cc(-c2nc3sccn3c2/C=N/N=C(N)N)c1`, the GI50 in the experiment on 786-0 renal was 7.71 µM; in the experiment with ACHN renal, 8.58 µM; in the experiment with IGROV1 ovarian, 11.6 µM; in the experiment on MOLT-4 leukemia, 10.9 µM; with NCI-H23 lung, 7.9 µM; in the experiment with NCI/ADR-RES ovarian, 26.4 µM. Besides, the GI50 with SF-268 CNS is 10.2 µM; in the experiment on TK-10 renal, 6.29 µM; in the experiment on U251 CNS, 5.2 µM. The TGI in the experiment with 786-0 renal is 14.4 µM; in the experiment with ACHN renal, 17.5 µM; with IGROV1 ovarian it was 26.2 µM; with MOLT-4 leukemia it was 18.6 µM; in the experiment with NCI-H23 lung, 15.6 µM; with NCI/ADR-RES ovarian, greater than 50 µM. For the same molecule, the TGI in the experiment with SF-268 CNS came out at 27.2 µM; in the experiment on TK-10 renal, 12.6 µM; in the experiment on U251 CNS it was 11.1 µM.

Regarding `Nc1ncnc2c1c(-c1ccc(Oc3ccccc3)cc1)nn2C[C@H]1SSC[C@@H]1O`, the GI50 in the experiment on 786-0 renal was 3.09 µM; in the experiment with ACHN renal, 0.482 µM; with IGROV1 ovarian it was 1.43 µM; with MOLT-4 leukemia, 0.0825 µM; in the experiment with NCI-H23 lung it was 0.83 µM; in the experiment on NCI/ADR-RES ovarian, 2.73 µM. Besides, the GI50 in the experiment on SNB-75 CNS was 3.02 µM; with TK-10 renal, 0.585 µM; in the experiment with U251 CNS, 1.45 µM. The TGI with 786-0 renal was determined as 12 µM; in the experiment with ACHN renal, 9.3 µM; with IGROV1 ovarian, 8.11 µM; with MOLT-4 leukemia, 0.361 µM; in the experiment with NCI-H23 lung, 21.4 µM; in the experiment on NCI/ADR-RES ovarian it was 37.1 µM. Also, the TGI was 14.8 µM in the experiment on SNB-75 CNS, 2.54 µM with TK-10 renal and 13.2 µM in the experiment on U251 CNS.
